Patent publication US7951815B2, “Substituted 1,4,8-triazaspiro [4,5]decan-2-one compounds” (Gruenenthal GmbH, priority 2004, dated 2011)
Read-outs that look alike come from different tables or passages of the source.

How the values were obtained:
NA transporter = test: Inhibition of noradrenaline uptake in rat brain synaptosomes; assay type: biochemical; settings: Table III
[1] = system: batrachotoxin (BTX) binding site of the sodium channel; test: Affinity to the batrachotoxin (BTX) binding site of the sodium channel; settings: rat cerebrocortex synaptosomes, test concentration not given
5-HT transporter = target: T1, 5-HT transporter (Rattus norvegicus, UniProt P31652); test: Inhibition of 5-HT uptake in rat brain synaptosomes; assay type: biochemical; settings: rat, 1 μM; for inhibition at 1 µM: read-out: Uptake 5-HT, % inhibition
T1 construct: synaptosomes of rat brain areas are freshly isolated; from tissue; host or cells: rat brain synaptosomes (P2 fraction) from marrow and pons
T1 sequence (P31652 whole entry): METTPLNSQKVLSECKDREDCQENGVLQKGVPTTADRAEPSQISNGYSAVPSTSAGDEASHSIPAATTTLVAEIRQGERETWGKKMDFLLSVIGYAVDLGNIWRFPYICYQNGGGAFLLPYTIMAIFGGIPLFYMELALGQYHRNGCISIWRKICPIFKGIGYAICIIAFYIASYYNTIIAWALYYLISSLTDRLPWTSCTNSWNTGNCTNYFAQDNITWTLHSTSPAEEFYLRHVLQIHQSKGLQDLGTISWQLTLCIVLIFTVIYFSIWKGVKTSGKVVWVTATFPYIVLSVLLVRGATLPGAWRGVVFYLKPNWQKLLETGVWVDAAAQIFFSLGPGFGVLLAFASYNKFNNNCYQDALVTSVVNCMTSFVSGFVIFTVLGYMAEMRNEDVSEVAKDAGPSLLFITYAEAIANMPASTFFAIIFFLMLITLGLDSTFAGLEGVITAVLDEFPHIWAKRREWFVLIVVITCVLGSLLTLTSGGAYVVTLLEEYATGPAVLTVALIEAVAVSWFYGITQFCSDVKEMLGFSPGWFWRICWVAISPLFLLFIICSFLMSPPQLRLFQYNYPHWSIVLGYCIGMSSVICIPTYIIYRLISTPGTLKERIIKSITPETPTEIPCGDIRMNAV

Row | Compound | Uptake (NA), rat, 10 μM, % inhibition (NA transporter) | BTX inhibition ([1]; Table III) | inhibition at 1 µM (5-HT transporter; Table III) | also measured
1 | CSCCC1NC2(CCN(C(=O)c3ccc4c(c3)OCO4)CC2)N(Cc2cccc(C#N)c2)C1=O (stereo not shown) [Example 138, 3-[8-(Benzo[1,3]dioxol-5-carbonyl)-3-(2-methylsulfanylethyl)-2-oxo-1,4,8-triazaspiro[4,5]dec-1-ylmethyl]benzonitrile] | 30% |  |  | 
2 | O=C(C1CCCCC1)N1CCC2(CC1)NCC(=O)N2CCOc1ccccc1 [Example 123, 8-Cyclohexanecarbonyl-1-(2-phenoxyethyl)-1,4,8-triazaspiro[4,5]decan-2-one] | 36% |  |  | 
3 | CCOC(=O)CN1C(=O)C(CCSC)NC12CCN(C(=O)c1ccccc1C(=O)OCc1ccccc1)CC2 (stereo not shown) [Example 332, Benzyl 2-[1-ethoxycarbonylmethyl-3-(2-methylsulfanylethyl)-2-oxo-1,4,8-triazaspiro[4,5]decan-8-carbonyl]benzoate] | 36% |  |  | 
4 | CC(C)CC1NC2(CCN(C(=O)COCc3ccccc3)CC2)NC1=O (stereo not shown) [Example 80, 8-(2-Benzyloxyacetyl)-3-isobutyl-1,4,8-triazaspiro[4,5]decan-2-one] | 30% |  |  | 
5 | Cc1nn(-c2ccccc2)nc1C(=O)N1CCC2(CC1)NC(Cc1ccccc1)C(=O)N2C (stereo not shown) [Example 168, 3-Benzyl-1-methyl-8-(5-methyl-2-phenyl-2H-[1,2,3]triazole-4-carbonyl)-1,4,8-triazaspiro[4,5]decan-2-one] |  | 44 | 46% | 
6 | COc1ccc(CN2C(=O)[C@H](Cc3ccccc3)NC23CCN(C(=O)c2ccc(Cl)cc2)CC3)cc1.Cl (racemic) [Example 27, 3-(S,R)-benzyl-8-(4-chloro-benzoyl)-1-(4-methoxy-benzyl)-1,4,8-triazaspiro[4,5]decan-2-one hydrochloride] |  |  |  | BTX inhibition ([1]; Table II): 79; Uptake 5-HT, rat, 1 μM, % inhibition (5-HT transporter; Table II): 78%
7 | COC(=O)c1ccc(CN2C(=O)CNC23CCN(C(=O)c2ccc(C(C)(C)C)cc2)CC3)cc1 [Example 305, Methyl 4-[8-(4-tert-Butylbenzoyl)-2-oxo-1,4,8-triazaspiro[4,5]dec-1-ylmethyl]benzoate] |  | 51 | 37% | 
8 | Cl.O=C(CCc1ccccc1)N1CCC2(CC1)N[C@@H](Cc1ccccc1)C(=O)N2Cc1ccccc1 [Example 58, 1,3-(S)-dibenzyl-8-(3-phenylpropionyl)-1,4,8-triazaspiro[4,5]decan-2-one hydrochloride] |  |  |  | BTX inhibition ([1]; Table II): 46; inhibition at 1 µM (5-HT transporter; Table II): 46%
9 | CC(C)CC1NC2(CCN(C(=O)c3ccc(Cl)nc3)CC2)N(Cc2c(Cl)cccc2Cl)C1=O (stereo not shown) [Example 279, 8-(6-Chloropyridin-3-carbonyl)-1-(2,6-dichlorobenzyl)-3-isobutyl-1,4,8-triazaspiro[4,5]decan-2-one] |  | 60 | 48% | 
10 | CCC(C(=O)N1CCC2(CC1)NC(Cc1ccccc1)C(=O)N2Cc1ccccc1)c1ccccc1 (stereo not shown) [Example 237, 1,3-Dibenzyl-8-(2-phenylbutyryl)-1,4,8-triazaspiro[4,5]decan-2-one] |  | 42 | 63% | 
11 | CCCCN1C(=O)C(Cc2ccccc2)NC12CCN(C(=O)c1cc(F)ccc1C(F)(F)F)CC2 (stereo not shown) [Example 175, 3-Benzyl-1-butyl-8-(5-fluoro-2-trifluoromethylbenzoyl)-1,4,8-triazaspiro[4,5]decan-2-one] |  | 38 | 69% | 
12 | CCOC(=O)CN1C(=O)C(Cc2ccccc2)NC12CCN(C(=O)CC(C)C)CC2 (stereo not shown) [Example 294, Ethyl [3-benzyl-8-(3-methylbutyryl)-2-oxo-1,4,8-triazaspiro[4,5]dec-1-yl]acetate] |  | 33 | 53% | 
13 | Cl.O=C(c1ccco1)N1CCC2(CC1)N[C@@H](Cc1ccccc1)C(=O)N2Cc1ccccc1 [Example 60, 1,3-(S)-dibenzyl-8-(furan-2-carbonyl)-1,4,8-triazaspiro[4,5]decan-2-one hydrochloride] |  |  |  | BTX inhibition ([1]; Table II): 39; inhibition at 1 µM (5-HT transporter; Table II): 80%
